Source: patent publication US20250222044A1, “LIMOSILACTOBACILLUS REUTERI GOLDGUT-LR99 AND APPLICATION THEREOF” (priority 2024, published 2025)

system: Limosilactobacillus reuteri GOLDGUT-LR99; assay: Antibiotic sensitivity, K-B method (Kirby-Bauer method); type: cell-based; parameters: key to Antibiotic susceptibility test result: R represents resistance; S represents sensitivity; settings: susceptibility of the strain to the antibiotic
Description: Antibiotic sensitivity of Limosilactobacillus reuteri GOLDGUT-LR99 was determined using the K-B method (Kirby-Bauer method).

Row | Compound | Antibiotic susceptibility test result
1 | CC1=C(C(=O)O)N2C(=O)[C@@H](NC(=O)[C@H](N)c3ccccc3)[C@H]2SC1 [Cephalexin] | S
2 | O=C(N[C@H](CO)[C@H](O)c1ccc([N+](=O)[O-])cc1)C(Cl)Cl [Chloramphenicol] | S
3 | O=C(O)c1cn(C2CC2)c2cc(N3CCNCC3)c(F)cc2c1=O [Ciprofloxacin] | R
4 | CCC[C@@H]1C[C@@H](C(=O)N[C@@H]([C@H]2O[C@H](SC)[C@H](O)[C@@H](O)[C@H]2O)[C@H](C)Cl)N(C)C1 [Clindamycin] | R
5 | C[C@H]1c2cccc(O)c2C(=O)C2=C(O)[C@]3(O)C(=O)C(C(N)=O)=C(O)[C@@H](N(C)C)[C@@H]3[C@@H](O)[C@@H]21 [Doxycycline] | S
6 | CC[C@H]1OC(=O)[C@H](C)[C@@H](O[C@H]2C[C@@](C)(OC)[C@@H](O)[C@H](C)O2)[C@H](C)[C@@H](O[C@@H]2O[C@H](C)C[C@H](N(C)C)[C@H]2O)[C@](C)(O)C[C@@H](C)C(=O)[C@H](C)[C@@H](O)[C@]1(C)O [Erythromycin] | R
7 | O=C1OCCN1/N=C/c1ccc([N+](=O)[O-])o1 [Furazolidone] | S
8 | NC[C@H]1O[C@H](O[C@H]2[C@H](O)[C@@H](O[C@H]3O[C@H](CO)[C@@H](O)[C@H](N)[C@H]3O)[C@H](N)C[C@@H]2N)[C@H](O)[C@@H](O)[C@@H]1O [Kanamycin] | S
9 | CCC(=O)O[C@@H]1CC(=O)O[C@H](C)C/C=C/C=C/[C@H](O)[C@H](C)C[C@H](CC=O)[C@H](O[C@@H]2O[C@H](C)[C@@H](O[C@H]3C[C@@](C)(O)[C@@H](OC(=O)CC)[C@H](C)O3)[C@H](N(C)C)[C@H]2O)[C@H]1OC [Midecamycin] | R
10 | CN(C)c1ccc(O)c2c1C[C@H]1C[C@H]3[C@H](N(C)C)C(O)=C(C(N)=O)C(=O)[C@@]3(O)C(O)=C1C2=O [Minocycline] | S
11 | CCn1cc(C(=O)O)c(=O)c2cc(F)c(N3CCNCC3)cc21 [Norfloxacin] | R
12 | CC1COc2c(N3CCN(C)CC3)c(F)cc3c(=O)c(C(=O)O)cn1c23 (centres unmarked) [Ofloxacin] | R
13 | CCN1CCN(C(=O)N[C@@H](C(=O)N[C@@H]2C(=O)N3[C@@H]2SC(C)(C)[C@@H]3C(=O)O)c2ccccc2)C(=O)C1=O [Piperacillin] | S
14 | Cc1cc(NS(=O)(=O)c2ccc(N)cc2)no1 [Sulfamethoxazole, Compound Sulfamethoxazole] | R
15 | CN(C)[C@@H]1C(O)=C(C(N)=O)C(=O)[C@@]2(O)C(O)=C3C(=O)c4c(O)cccc4[C@@](C)(O)[C@H]3C[C@@H]12 [Tetracycline] | S
16 | CN[C@H](CC(C)C)C(=O)N[C@H]1C(=O)N[C@@H](CC(N)=O)C(=O)N[C@H]2C(=O)N[C@H]3C(=O)N[C@H](C(=O)N[C@H](C(=O)O)c4cc(O)cc(O)c4-c4cc3ccc4O)[C@H](O)c3ccc(c(Cl)c3)Oc3cc2cc(c3O[C@@H]2O[C@H](CO)[C@@H](O)[C@H](O)[C@H]2O[C@H]2C[C@](C)(N)[C@H](O)[C@H](C)O2)Oc2ccc(cc2Cl)[C@H]1O [Vancomycin] | R
17 | Gentamicin | S
18 | Neomycin | S
19 | Penicillin | S
20 | Polymyxin | R
